Laboratory results reported in US11319299B2, “Substituted carboxamides as inhibitors of WDR5 protein-protein binding” (PROPELLON THERAPEUTICS INC., priority 2016, dated 2022).
pIC50: −log10 of the molar value.

System: MV4-11 cells
Assay: Cell proliferation assay (ATPlite)
Assay type: cell-based
Details: Homo sapiens, MV4-11, 120 h; MV-411 cells, five days; read-out: In vitro whole cell potency in MV-411 cells, (IC50)
Experimental: (iv) Cell Proliferation Assay
MV4-11 cells were seeded into a 96-well plate at 1,000 cells/well in 150 μl medium (Alpha-MEM containing 10% FBS, 100 μg/ml Normocin, and 50 μg/ml Gentamycin, Invitrogen). A HP D300 digital dispenser was used to dose cells with DMSO or test compounds across a 10-point range of concentrations (high dose of 10 μM), and cultures were grown in a humidified 5% CO2 incubator at 37° C. After five days, plates were removed from the incubator and equilibrated to room temperature. An equal volume of ATPlite assay reagent was added to each well, and samples were processed according to manufacturer's instructions (Perkin Elmer). Luminescent signal was measured using an Envision plate reader equipped with a US-Luminescence detector.

| pIC50 | Compound |
| --- | --- |
| < 5.00 | CN(C)C1CCN(c2cc(F)c(-c3cccc(CN4CCOCC4)c3)cc2NC(=O)c2c[nH]c(=O)cc2C(F)(F)F)C1 (stereo not shown) [Example 53, N-(4-(3-(dimethylamino)pyrrolidin-1-yl)-6-fluoro-3′-(morpholinomethyl)-[1,1′-biphenyl]-3-yl)-6-oxo-4-(trifluoromethyl)-1,6-dihydropyridine-3-carboxamide] |
| 6.36 | CN1CCN(c2ccc(-c3cnc(N4CCOCC4)nc3)cc2NC(=O)c2c[nH]c(=O)cc2C(F)(F)F)CC1 [Example 56, N-(2-(4-methylpiperazin-1-yl)-5-(2-morpholinopyrimidin-5-yl)phenyl)-6-oxo-4-(trifluoromethyl)-1,6-dihydropyridine-3-carboxamide] |
| < 5.00 | CN1CCN(c2cc(F)c(-c3cnc(NC4CC4)nc3)cc2NC(=O)c2c[nH]c(=O)cc2C(F)(F)F)CC1 [Example 10, N-(5-(2-(cyclopropylamino)pyrimidin-5-yl)-4-fluoro-2-(4-methylpiperazin-1-yl)phenyl)-6-oxo-4-(trifluoromethyl)-1,6-dihydropyridine-3-carboxamide] |
| 6.24 | C[C@@H]1CN(c2cc(F)c(-c3cnc(C#N)nc3)cc2NC(=O)c2c[nH]c(=O)cc2C(F)(F)F)C[C@H](C)N1C [Example 31, N-[5-(2-cyanopyrimidin-5-yl)-4-fluoro-2-[(3S,5R)-3,4,5-trimethylpiperazin-1-yl]phenyl]-6-oxo-4-(trifluoromethyl)-1H-pyridine-3-carboxamide] |
| 5.56 | Cc1cc(C(=O)Nc2cc(-c3cnc(N4CCOCC4)nc3)c(F)cc2N2C[C@@H](C)N(C)[C@@H](C)C2)cc(C)c1F [Example 28, 4-fluoro-N-[4-fluoro-5-(2-morpholin-4-ylpyrimidin-5-yl)-2-[(3R,5S)-3,4,5-trimethylpiperazin-1-yl]phenyl]-3,5-dimethylbenzamide] |
| < 5.00 | CN1CCN(c2cc(F)c(-c3cncc(CN[C@@H]4CCOC4)c3)cc2NC(=O)c2c[nH]c(=O)cc2C(F)(F)F)CC1 [Example 49, (R)—N-(4-fluoro-2-(4-methylpiperazin-1-yl)-5-(5-(((tetrahydrofuran-3-yl)amino)methyl)pyridin-3-yl)phenyl)-6-oxo-4-(trifluoromethyl)-1,6-dihydropyridine-3-carboxamide] |
| 7.49 | C[C@@H]1CN(c2cc(F)c(-c3cccc(N4CCOCC4)n3)cc2NC(=O)c2c[nH]c(=O)cc2C(F)(F)F)C[C@H](C)N1C [Example 473, N-[4-fluoro-5-(6-morpholin-4-ylpyridin-2-yl)-2-[(3R,5S)-3,4,5-trimethylpiperazin-1-yl]phenyl]-6-oxo-4-(trifluoromethyl)-1H-pyridine-3-carboxamide] |
| 6.07 | CN1CCN(c2cc(F)c(-c3cnc(C#N)nc3)cc2NC(=O)c2c[nH]c(=O)cc2C(F)(F)F)CC1 [Example 16, N-(5-(2-cyanopyrimidin-5-yl)-4-fluoro-2-(4-methylpiperazin-1-yl)phenyl)-6-oxo-4-(trifluoromethyl)-1,6-dihydropyridine-3-carboxamide] |
| 5.83 | C[C@@H]1CN(c2ccc(-c3cnc(N4CCOCC4)nc3)cc2NC(=O)c2c[nH]c(=O)cc2C(F)(F)F)C[C@H](C)N1C [Example 58, N-(5-(2-morpholinopyrimidin-5-yl)-2-((3R,5S)-3,4,5-trimethylpiperazin-1-yl)phenyl)-6-oxo-4-(trifluoromethyl)-1,6-dihydropyridine-3-carboxamide] |
| 5.54 | C[C@@H]1CN(c2cc(F)c(-c3cccc(CN4CCOCC4)c3)cc2NC(=O)c2c[nH]c(=O)cc2C(F)(F)F)CCN1C [Example 50, (R)—N-(4-(3,4-dimethylpiperazin-1-yl)-6-fluoro-3′-(morpholinomethyl)-[1,1′-biphenyl]-3-yl)-6-oxo-4-(trifluoromethyl)-1,6-dihydropyridine-3-carboxamide] |
| 6.31 | CC1CN(c2cc(F)c(-c3cccc(CN4CCOCC4)c3)cc2NC(=O)c2c[nH]c(=O)cc2C(F)(F)F)CCN1C (stereo not shown) [Example 45, N-(4-(3,4-dimethylpiperazin-1-yl)-6-fluoro-3′-(morpholinomethyl)-[1,1′-biphenyl]-3-yl)-6-oxo-4-(trifluoromethyl)-1,6-dihydropyridine-3-carboxamide] |
| < 5.00 | C[C@@H]1CN(c2cc(F)c(-c3cccc(CN4CCOCC4)c3)cc2NC(=O)c2c[nH]c(=O)cc2C(F)(F)F)C[C@H](C)N1C [Example 52, N-(6-fluoro-3′-(morpholinomethyl)-4-((3R,5S)-3,4,5-trimethylpiperazin-1-yl)-[1,1′-biphenyl]-3-yl)-6-oxo-4-(trifluoromethyl)-1,6-dihydropyridine-3-carboxamide] |
| 6.22 | CN1CCN(c2cc(F)c(-c3cnc(N4CCOCC4)nc3)cc2NC(=O)c2c[nH]c(=O)cc2C(F)F)CC1 [Example 20, 4-(difluoromethyl)-N-(4-fluoro-2-(4-methylpiperazin-1-yl)-5-(2-morpholinopyrimidin-5-yl)phenyl)-6-oxo-1,6-dihydropyridine-3-carboxamide] |
| < 5.00 | CN1CCN(c2cc(F)c(-c3cncc(CNC4CCOCC4)c3)cc2NC(=O)c2c[nH]c(=O)cc2C(F)(F)F)CC1 [Example 48, N-(4-fluoro-2-(4-methylpiperazin-1-yl)-5-(5-(((tetrahydro-2H-pyran-4-yl)amino)methyl)pyridin-3-yl)phenyl)-6-oxo-4-(trifluoromethyl)-1,6-dihydropyridine-3-carboxmaide] |
| 7.17 | C[C@@H]1CN(c2cc(F)c(-c3ccc(N4CCOCC4)nc3)cc2NC(=O)c2c[nH]c(=O)cc2C(F)(F)F)C[C@H](C)N1C [Example 32, N-[4-fluoro-5-(6-morpholin-4-ylpyridin-3-yl)-2-[(3S,5R)-3,4,5-trimethylpiperazin-1-yl]phenyl]-6-oxo-4-(trifluoromethyl)-1H-pyridine-3-carboxamide] |
| 6.95 | CC1CN(c2cc(F)c(-c3ccc(N4CCOCC4)c(F)c3)cc2NC(=O)c2c[nH]c(=O)cc2C(F)(F)F)CCN1C (stereo in doubt) [Example 201, N-[4-fluoro-5-(3-fluoro-4-morpholin-4-ylphenyl)-2-[(3R)-3,4-dimethylpiperazin-1-yl]phenyl]-6-oxo-4-(trifluoromethyl)-1H-pyridine-3-carboxamide] |
| 6.41 | C[C@H]1CN(c2cc(F)c(-c3cccc(CN4CCOCC4)c3)cc2NC(=O)c2c[nH]c(=O)cc2C(F)(F)F)CCN1C [Example 51, (S)—N-(4-(3,4-dimethylpiperazin-1-yl)-6-fluoro-3′-(morpholinomethyl)-[1,1′-biphenyl]-3-yl)-6-oxo-4-(trifluoromethyl)-1,6-dihydropyridine-3-carboxamide] |
| 5.28 | CN1CCN(c2cc(F)c(C3=CCOCC3)cc2NC(=O)c2c[nH]c(=O)cc2C(F)(F)F)CC1 [Example 22, N-[5-(3,6-dihydro-2H-pyran-4-yl)-4-fluoro-2-(4-methylpiperazin-1-yl)phenyl]-6-oxo-4-(trifluoromethyl)-1H-pyridine-3-carboxamide] |

| Compound | pIC50 |
| --- | --- |
| CN1CCN(c2cc(F)c(C3=CCNCC3)cc2NC(=O)c2c[nH]c(=O)cc2C(F)(F)F)CC1 [Example 23, N-[4-fluoro-2-(4-methylpiperazin-1-yl)-5-(1,2,3,6-tetrahydropyridin-4-yl)phenyl]-6-oxo-4-(trifluoromethyl)-1H-pyridine-3-carboxamide] | < 5.00 |
